From patent publication US20200069644A1, “NOVEL USE OF A FORMYL PEPTIDE RECEPTOR 2/ LIPOXIN A4 RECEPTOR (FPR2/ALX) AGONIST FOR TREATMENT OF HEART FAILURE” (BRISTOL- MYERS SQUIBB COMPANY, priority 2017, published 2020)

How the values were obtained:
[1] = tested on: myocardial infarction in mice; assay: Mouse permanent coronary artery occlusion, early infarct composition 3 days post MI; type: in vivo; conditions: 3 mg/kg PO QD
Experimental: In order to understand early changes in the infarct extracellular matrix, collagen remodeling enzymes and their endogenous inhibitors, the effects of 3 mg/kg Compound 1 treatment on the myocardial infarct composition in mice were evaluated 3 days post myocardial infarction. Myocardial infarction was created by permanently ligating the left anterior descending artery with a surgical suture. Treatment (QD, PO; suspension vehicle or Compound 1 at 3 mg/kg) was initiated 24 hours after MI and were continued to 3 days post MI. On day 3, mice received a final dose of treatment and the hearts were removed 2 hours post treatment (i.e., 74 hours after MI) for histological analysis.

[2] = molecular target: T1, Mouse FPR2 (Mus musculus, UniProt O88536); assay: cAMP inhibition, mouse FPR2/CHO-A12; type: cell-based
T1 construct: expressed in transfected cells; host or cells: CHO-A12
T1 sequence (O88536 1-351): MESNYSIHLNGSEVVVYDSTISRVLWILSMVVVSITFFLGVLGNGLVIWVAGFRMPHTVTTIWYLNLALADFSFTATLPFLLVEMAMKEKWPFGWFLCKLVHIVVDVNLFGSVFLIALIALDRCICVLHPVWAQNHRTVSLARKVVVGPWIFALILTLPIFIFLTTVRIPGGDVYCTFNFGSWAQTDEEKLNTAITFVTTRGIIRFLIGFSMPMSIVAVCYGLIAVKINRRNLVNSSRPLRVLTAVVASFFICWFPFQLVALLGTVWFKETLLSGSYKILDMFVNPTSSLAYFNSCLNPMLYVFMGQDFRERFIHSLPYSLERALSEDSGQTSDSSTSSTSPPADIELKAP
Experimental: [Worded in the source for another species; this species is reported under the same test.] (§1) A mixture of forskolin (5 μM final for FPR2 or 10 μM final for FPR1) and IBMX (200 μM final) were added to 384-well Proxiplates (Perkin-Elmer) pre-dotted with test compounds in DMSO (1% final) at final concentrations in the range of 0.1 nM to 10 μM. CHO overexpressing human FPR1 or human FPR2 receptors were cultured in F-12 (Ham's) medium supplemented with 10% qualified FBS, 250 μg/ml zeocin and 300 μg/ml hygromycin (Life Technologies). Reactions were initiated by adding 2,000 human FPR2 cells per well or 4,000 human FPR1 cells per well in Dulbecco's PBS (with calcium and magnesium) (Life Technologies) supplemented with 0.1% BSA (Perkin-Elmer). The reaction mixtures were incubated for 30 min at room temperature. The level of intracellular cAMP was determined using the HTRF HiRange cAMP assay reagent kit (Cisbio) according to manufacturer's instruction. Solutions of cryptate conjugated anti-cAMP and d2 flurorophore-labelled cAMP were made in a supplied lysis buffer separately. […] After a 1 h room temperature incubation, time-resolved fluorescence intensity was measured using the Envision (Perkin-Elmer) at 400 nm excitation and dual emission at 590 nm and 665 nm. […] The potency and activity of Compound 1 to inhibit cAMP production was then determined by fitting to a 4-parametric logistic equation from a plot of cAMP level versus compound concentrations. […]

[3] = tested on: angiotensin II-induced cardiac fibrosis in mice; assay: Angiotensin II-induced cardiac fibrosis mouse model; type: in vivo; conditions: 3 mg/kg QD for 3 weeks, P<0.001
Experimental: To assess myocardial fibrosis in the setting of non-ischemic heart disease with hypertension, mice were challenged with angiotensin II to stimulate cardiac hypertrophy and left ventricular fibrosis. Mice were administered angiotensin II using subcutaneously implanted osmotic mini-pumps (˜2 mg/kg/day). A separate group of mice were implanted with subcutaneous pumps containing saline (surgical “sham” group); these mice served as control for pump implantation surgery. Mice were treated with Compound 1 (3 mg/kg, QD) or dosing solution without compound (QD, referred to as vehicle) starting 7 days following pump implantation. In this model, cardiac fibrosis development reaches its peak and without treatment, will remain fibrotic at this high level until the angII is depleted (˜4 weeks post implantation). Interventional treatment with Compound 1 to regress cardiac fibrosis was given to mice for 3 weeks. At the end of treatment phase, hearts were removed from animals and evaluated for collagen levels/fibrosis by cross-sectional histology of the hearts.
Myocardial fibrosis was evaluated in the mouse with continuous angiotensin II challenge administered by subcutaneous osmotic mini-pump. This is a model of non-ischemic heart disease.
The effect of Compound 1 on regression of established cardiac fibrosis was evaluated in the angiotensin II-induced cardiac fibrosis mouse model. […]

[4] = molecular target: T2, Human FPR2 (Homo sapiens, UniProt P25090); assay: FPR2 cAMP assay (cAMP inhibition); type: cell-based
T2 construct: expressed in transfected cells; host or cells: CHO-A12
T2 sequence (P25090 1-351): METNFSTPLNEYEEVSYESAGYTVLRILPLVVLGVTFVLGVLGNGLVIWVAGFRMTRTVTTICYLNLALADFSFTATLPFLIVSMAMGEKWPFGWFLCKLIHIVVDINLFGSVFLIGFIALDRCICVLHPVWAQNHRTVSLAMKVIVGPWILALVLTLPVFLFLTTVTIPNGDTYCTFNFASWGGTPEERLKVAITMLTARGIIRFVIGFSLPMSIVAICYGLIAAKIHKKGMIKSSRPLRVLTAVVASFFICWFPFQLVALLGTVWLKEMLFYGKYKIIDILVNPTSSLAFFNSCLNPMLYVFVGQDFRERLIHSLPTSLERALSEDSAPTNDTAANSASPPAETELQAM
Experimental: as §1

COc1cc(F)c([C@@H]2CNC(=O)[C@H]2NC(=O)Nc2ccccc2)c(F)c1 [Compound 1, 1-((3S,4R)-4-(2,6-difluoro-4-methoxyphenyl)-2-oxopyrrolidin-3-yl)-3-phenylurea]
MMP-2 in infarcted myocardium vs. vehicle [1]: trend towards less MMP-2
TIMP-4 in infarcted tissue vs. vehicle [1]: No differences
average infarct area vs. vehicle [1]: similar
collagen content within the infarct, increase vs. vehicle ([1]; P<0.05): 1.7 fold
selectivity for mouse FPR2 vs. FPR1 ([2]; CHO cell lines, cAMP): 640 fold
EC50 ([2]; Mouse FPR2/CHO-A12): 0.6 nM
reduction of left ventricular fibrosis vs. vehicle treatment group ([3]; started 7 days after pump implantation): 90%
reduction of fibrosis relative to 7-day baseline group [3]: 89%
selectivity for human FPR2 vs. FPR1 ([4]; CHO cell lines, cAMP): 446 fold
EC50 ([4]; Human FPR2/CHO-A12): 2.8 nM
